Experimental data as given in patent US12409181B2, “Treatment for aortic aneurysms” (THE REGENTS OF THE UNIVERSITY OF CALIFORNIA, priority 2019, dated 2025).
“Also recorded” adds a separate entry of the source.

Tests used:
aortic rings = experiment: Arterial ring isometric tension measurements; parameters: species or system mice
Method: Arterial Ring Isometric Tension Measurements. Isometric tension in aortas was measured as previously described,^64 with minor modifications. Thoracic aortas were dissected in Krebs-Henseleit solution, cleaned of any adherent connective tissue, and cut into 1.5-2 mm segments. Rings with intact endothelium were mounted in a wire myograph over 40 μm wires, set at a resting tension of 0.5 g, and allowed to equilibrate at 37° C. for 45 min with intermittent washes every 15 min. After equilibration, aortas were treated with 40 mM K^+-solution. For vascular relaxation by acetylcholine (Sigma) or 8-(4-chlorophenylthio)cGMP (8-CPT-cGMP, BioLog), each aortic ring was pre-contracted to generate ˜0.15 g contraction by treatment with prostaglandin-F2α (PGF2α 2-8 μM, Thermo-Fisher). The degree of relaxation was calculated as a percent of PGF2α-induced contraction.

human aortic SMCs [1] = experiment: SMC proliferation by BrdU uptake; type: cell-based
Method: (§1) SMC Culture and Adenovirus Infection. Murine aortic SMCs were isolated from the aortas of 8-12 week old wild type and PKG1^RQ/+ mice and were cultured in Smooth Muscle Basal Media (SmBM) containing 20% FBS, pyruvate, HEPES, L-glutamine, penicillin/streptomycin and growth factors (SmBM Bullet kit; CC-4149 from Lonza), as previously described.^69 Two independent cell isolates from wild type and PKG1^RQ mice were used at passage one. Human primary aortic SMCs were purchased from Lifeline Cell Technology (Frederick, MD, FC-0015) and cultured in VascuLife Basal Medium supplemented with recombinant epidermal growth factor, insulin, and fibroblast growth factor-b, ascorbic acid, L-glutamine, 20% FBS, gentamycin, and amphotericin (Vasculife SMC LifeFactors kit; LS-1040 from Lifeline Technologies). Human SMCs were used at passages 3-6. Adenovirus was generated using the ViraPower Adenoviral Expression System (Thermo Fisher).^67 Human SMCs were infected with virus expressing wild type or mutant human PKG1α (containing the R177Q mutation); the MOI was 3-10 and titrated to produce wild type and mutant kinase at 2-3 fold the level of endogenous PKG1 at 72 h post infection. […]
(§2) SMC Immunofluorescence Staining. […] Images were analyzed with a Keyence BZ-X700 fluorescence microscope.

human aortic SMCs [2] = experiment: H2O2 production by Amplex Red in SMCs expressing PKG1^RQ; type: cell-based; details: human aortic SMCs infected with PKG1^RQ adenovirus
Method: as §1, with “3-6.” for “3-6. Adenovirus was generated using the ViraPower Adenoviral Expression System (Thermo Fisher).^67 Human SMCs were infected with virus expressing wild type or mutant human PKG1α (containing the R177Q mutation); the MOI was 3-10 and titrated to produce wild type and mutant kinase at 2-3 fold the level of endogenous PKG1 at 72 h post infection.”
Amplex Red and NADPH Oxidase Assays. Primary murine SMCs isolated from wild type or PKG1^RQ/+ aortas, and human SMCs infected with control, wild type, or mutant PKG1^RQ virus, were seeded at 4×10^4 cells/well in 96-well plates, and H2O2 production was measured using an Amplex Red/Hydrogen Peroxide/Peroxidase Assay Kit (Thermo Fischer Scientific). […] Fluorescence was measured every min in a BioTek Synergy 2 plate reader, using 540 nm excitation and 590 nm emission wavelengths.

human aortic SMCs [3] = experiment: DNA oxidation by 8-OH-deoxyguanosine immunofluorescence staining in SMCs; type: cell-based; details: human aortic SMCs expressing PKG1^RQ
Method: as §1, §2

human aortic SMCs [4] = experiment: SMC apoptosis by cleaved caspase-3 staining; type: cell-based; details: human SMCs expressing PKG1^RQ
Method: as §1, §2

human aortic SMCs [5] = experiment: Western blots (VASP phosphorylation, JNK activation) and OxyBlot protein oxidation in human SMCs; type: cell-based; details: human aortic SMCs, combined with low concentrations of an NO donor
Method: Western Blotting. Following anesthesia with ketamine (100 mg/kg) and xylazine (10 mg/kg) by intraperitoneal injection, mice were exsanguinated and perfused with ice-cold phosphate-buffered saline (PBS) containing protease inhibitor cocktail (Calbiochem #539131). Aortas were excised, cleaned from surrounding tissue, and snap-frozen in liquid nitrogen within 15 min of euthanasia. Frozen aortas were pulverized and sonicated (3×10 sec) in ice-cold RIPA buffer (50 mM NaCl, 50 mM Tris-HCl, pH 8, 1% NP-40, 0.1% SDS, 0.5% sodium deoxycholate) supplemented with 1 mM NaF, 1 mM β-glycerolphosphate, and protease inhibitor cocktail. Western blots were developed with primary antibodies specific for PKG1 (1:1000, Cell Signaling Technology; 3248, […] (1:1000, Cell Signaling Technology; 3114), GAPDH (1:1000, Cell Signaling Technology; 2118), β-actin (1:5000, Santa Cruz Biotechnology; 47778), and JNK-phospho-Thr^183/Tyr^185 (1:1000, Cell Signaling Technology; 9251). Blots were developed and visualized with enhanced chemiluminescence using LI-COR Odyssey (with ImageStudio, V5) or with film in the linear range of exposure (with densitometry scanning using ImageJ (V1.51). Protein carbonyl groups (aldehydes and ketones) were detected using the OxyBlot™ Protein Oxidation Detection Kit (Millipore EMD; S7150). Unprocessed scans of blots are provided in the Source Data file.
SMC Culture and Adenovirus Infection. Murine aortic SMCs were isolated from the aortas of 8-12 week old wild type and PKG1^RQ/+ mice and were cultured in Smooth Muscle Basal Media (SmBM) containing 20% FBS, pyruvate, HEPES, L-glutamine, penicillin/streptomycin and growth factors (SmBM Bullet kit; CC-4149 from Lonza), as previously described.^69 Two independent cell isolates from wild type and PKG1^RQ mice were used at passage one. Human primary aortic SMCs were purchased from Lifeline Cell Technology (Frederick, MD, FC-0015) and cultured in VascuLife Basal Medium supplemented with recombinant epidermal growth factor, insulin, and fibroblast growth factor-b, ascorbic acid, L-glutamine, 20% FBS, gentamycin, and amphotericin (Vasculife SMC LifeFactors kit; LS-1040 from Lifeline Technologies). Human SMCs were used at passages 3-6. Adenovirus was generated using the ViraPower Adenoviral Expression System (Thermo Fisher).^67 Human SMCs were infected with virus expressing wild type or mutant human PKG1α (containing the R177Q mutation); the MOI was 3-10 and titrated to produce wild type and mutant kinase at 2-3 fold the level of endogenous PKG1 at 72 h post infection. […] For knock-down of NOX2 and NOX4, SMCs were infected with adenovirus expressing shNOX2 or shNOX4 oligomers (downstream of the U6 promoter) at an MOI of 100; H2O2 production and NADPH oxidase activity assays were performed 48 h later (as described below).

Prkg1^RQ/+ mice = experiment: Transverse aortic constriction (TAC) with N-acetylcysteine treatment; type: in vivo

prostaglandin F2α was tested, and the “concentration required to pre-contract aortic rings, mutant mice” value (aortic rings; eight month-old Prkg1^RQ/+ mice, n=5 vessels) was 2.27 ± 0.86 µM and the “concentration required to pre-contract aortic rings, wild type mice” value (aortic rings; eight month-old wild type mice, n=5 vessels) was 2.15 ± 0.17 µM.

`CN(C)c1cccc(-c2c3c(=O)n(-c4ccccc4Cl)[nH]c3cc(=O)n2C)c1` [GKT137831] was tested, and the “growth-inhibitory effect of PKG1^RQ (SMC proliferation)” value (human aortic SMCs [1]; human SMCs expressing PKG1^RQ, growth factor-induced proliferation) was “partly prevented”, the “H2O2 production in PKG1^RQ-expressing cells” value (human aortic SMCs [2]) was “reduced H2O2 production in the PKG1^RQ-expressing cells to a level found in control cells” and the “PKG1^RQ-induced increase in DNA oxidation (pro-oxidant effect of PKG1^RQ)” value (human aortic SMCs [3]) was “blocked”. For the same molecule, the “pro-apoptotic effect of PKG1^RQ (SMC apoptosis)” value (human aortic SMCs [4]) was “partly prevented”.

In the case of `CCCc1nn(C)c2c(=O)[nH]c(-c3cc(S(=O)(=O)N4CCN(C)CC4)ccc3OCC)nc12` [sildenafil, reference compound], the JNK activation (human aortic SMCs [5]) is reported as “induced JNK activation”, the VASP phosphorylation (human aortic SMCs [5]) is reported as “increased VASP phosphorylation” and the SMC proliferation (human aortic SMCs [1]; human aortic SMCs, drug combination of sildenafil and NO donor) is reported as “inhibited SMC proliferation”.

`Nc1nc2c(nc(Sc3ccc(Cl)cc3)n2[C@@H]2O[C@@H]3COP(=O)(O)O[C@H]3[C@H]2O)c(=O)[nH]1` [8-CPT-cGMP, 8-(4-chlorophenylthio)cGMP] was tested, and the “relaxation of pre-contracted aortic rings in response to the agent” value (aortic rings; Prkg1^RQ/+ versus wild type aortas, rings pre-contracted with PGF2α) was “reduced in the mutant mice compared to wild type mice”.

`CC(=O)N[C@@H](CS)C(=O)O` [NAC, N-acetylcysteine] was tested, and the “aortic pressure gradients after TAC surgery” value (Prkg1^RQ/+ mice; NAC-treated mice) was “did not affect”, the “pre-stenotic aortic dilation after TAC” value (Prkg1^RQ/+ mice; NAC-treated mice) was “did not affect” and the “survival after TAC compared to untreated mice” value (Prkg1^RQ/+ mice; NAC-treated mutant mice, 14 d after TAC) was “trend towards improved survival; also recorded: its effect on mortality was limited”. For the same molecule, the “TAC-induced aortic pathological changes, including media thinning” value (Prkg1^RQ/+ mice; Prkg1^RQ/+ mice, 1 mg/ml NAC in drinking water four weeks prior to and two weeks after TAC) was “largely prevented; also recorded: effective in ameliorating aortic wall injury after TAC”, the “oxidative stress after TAC” value (Prkg1^RQ/+ mice; Prkg1^RQ/+ mice, NAC four weeks prior to and two weeks after TAC) was “reduced oxidative stress” and the “effect in wild type mice after TAC” value (Prkg1^RQ/+ mice; wild type mice, NAC four weeks prior to and two weeks after TAC) was “no obvious effect”.
